Common to all, as to format: cell-based
Data set [1] has as its system mesenchymal stem cells derived from human adipose tissue. Description: Test Example 4: cytotoxicity, LDH activity in culture solution. As for the experimental part: Mesenchymal stem cells derived from the human adipose tissue (#C-12977 manufactured by Takara Bio Inc.) were suspended in mesenchymal stem cell growth medium 2 (C-28009 manufactured by Takara Bio Inc.) so as to be 8×10^4 cells/1.8 mL, and seeded on a 6-well cell culture treatment plate (3516 manufactured by Corning Inc.). To the seeded mesenchymal stem cells derived from human adipose tissue was added 200 μL of the compound solution of each of Examples 1 to 8 diluted to 10-fold concentration with the mesenchymal stem cell growth medium 2, or mesenchymal stem cell growth medium alone (control), and after culturing for 24 hours, the culture solution was recovered. The activity of lactate dehydrogenase (LDH) contained in the recovered culture solution was measured by using LDH Cytotoxicity Detection Kit (MK401 manufactured by Takara Bio Inc.) as follows. To a freeze-dried product of Solution A was added 1 mL of purified water to completely dissolve therein, then, 250 μL of Solution A and 11.25 mL of Solution B were mixed to prepare Solution C. To 100 μL of the recovered culture solution was added 100 μL of Solution C, and the mixture was reacted at room temperature for 30 minutes. Absorbance at 490 nm was measured using Enspire (manufactured by PerkinElmer).

Data set [2] deals with human umbilical cord matrix-derived mesenchymal stem cells. As to the kind of experiment: Test Example 7: promotion of secretion of extracellular vesicles, PS Capture exosome ELISA (anti-CD63). The conditions noted are these: 24 hours, compound untreated group (control) set to 1. As for the experimental part:
(§1) Human bone marrow-derived mesenchymal stem cells or human umbilical cord matrix-derived mesenchymal stem cells (#C-12974, #C-12971 manufactured by Takara Bio Inc.) were suspended in mesenchymal stem cell growth medium 2 (C-28009 manufactured by Takara Bio Inc.) so as to be 8×10^4 cells/1.8 mL, and seeded on a 6-well cell culture treatment plate (3516 manufactured by Corning Inc.). To the seeded mesenchymal stem cells was added each 200 μL of the compounds of Examples 1 to 8 diluted to 10-fold concentration with the mesenchymal stem cell growth medium 2, and after culturing for 24 hours, the culture solution was recovered. Subsequently, the recovered culture solution was centrifuged under 20,000×g at 4° C. for 60 minutes to prepare a culture solution from which cell fragments and Large Extracellular Vesicles were removed. For the detection of extracellular vesicles, PS Capture (trademark) exosome ELISA kit (anti-mouse IgG POD) (#297-79201 manufactured by FUJIFILM Wako Pure Chemical Corporation) was used.
(§2) To Reaction/Washing Buffer (1×) prepared by diluting Reaction/Washing Buffer (10×) 10-fold with purified water was added 1/100 amount of Exosome Binding Enhancer (100×) to prepare a Reaction/Washing Buffer (1×). Each culture solution was diluted 5-fold with the Reaction/Washing Buffer (1×). After washing Exosome Capture 96-well plate with 300 μL of the Reaction/Washing Buffer (1×) three times, 5-fold-diluted each extracellular vesicle solution, or the mesenchymal stem cell growth medium 2 in which no cell was cultured (negative control) was added to each well, and the mixture was reacted at room temperature for 2 hours while shaking with a microplate shaker. After completion of the reaction, the reaction mixture was discarded, and after washing each well with 300 μL of the Reaction/Washing Buffer (1×) three times, 100 μL of Primary Antibody Anti-CD63 (×100) diluted to 1,000-fold with the Reaction/Washing Buffer (1×) was added thereto, and the mixture were reacted at room temperature for 1 hour while shaking with a microplate shaker. After completion of the reaction, the reaction mixture was discarded, and after washing each well with 300 μL of the Reaction/Washing Buffer (1×) three times, 100 μL of Secondary Antibody HRP-conjugated Anti-mouse IgG (100×) diluted to 1,000-fold with the Reaction/Washing Buffer (1×) was added thereto, and the mixture were reacted at room temperature for 1 hour while shaking with a microplate shaker. After completion of the reaction, the reaction mixture was discarded, and after washing each well with 300 μL of the Reaction/Washing Buffer (1×) five times, 100 μL of TMB Solution was added, and after shaking with a microplate shaker for 1 minutes, the mixture was reacted at room temperature for 30 minutes. After completion of the reaction, 100 μL of Stop Solution was added thereto, and after shaking with a microplate shaker for 5 seconds, the absorbance at 450 nm and 620 nm was measured with Enspire (manufactured by PerkinElmer). Based on the obtained measured values, a value subtracting the absorbance at 620 nm from the absorbance at 450 nm was calculated and a relative value when the compound untreated group (control) was set to 1 was calculated.
On the technique in general: ELISA stands for enzyme-linked immunosorbent assay.

In data set [3] the test system is human bone marrow-derived mesenchymal stem cells. The description is as above. The conditions noted are these: 24 hours, compound untreated group (control) set to 1. As for the experimental part:
as §1, §2

The test system of data set [4] is mesenchymal stem cells derived from human adipose tissue. Description: Test Example 5: cell proliferation activity (cell viability), CellTiter-Glo. More on the design: scale not given here. As for the experimental part:
Mesenchymal stem cells derived from the human adipose tissue (#C-12977 manufactured by Takara Bio Inc.) were suspended in mesenchymal stem cell growth medium 2 (C-28009 manufactured by Takara Bio Inc.) so as to be 2×10^3 cells/90 μL, and seeded on a 96-well cell culture treatment plate (3585 manufactured by Corning Inc.). To the seeded mesenchymal stem cells derived from human adipose tissue was added 10 μL of the compound solution of each of Examples 1 to 8 diluted to 10-fold concentration with the mesenchymal stem cell growth medium 2, or mesenchymal stem cell growth medium alone (control), and the cells were cultured for 24 hours. Subsequently, the number of living cells was measured as follows using CellTiter-Glo (Registered Trademark) Luminescent Cell Viability Assay (G7570 manufactured by Promega). 100 μL well of a solution in which CellTiter-Glo (trademark) Substrate was dissolved in CellTiter-Glo (trademark) Buffer was added to each well of the above-mentioned 96-well cell culture treatment plate, and then, 100 μL thereof was transferred to 96-well cell culture treatment white plate (356701 manufactured by Corning Inc.), and the luminescence was measured with Enspire (manufactured by PerkinElmer).
In general terms: Cellular ATP, detected with luciferase, serves as a proxy for viable cell number.

Setting [5] is: Table 4, 2 μM, 24 hours, LDH, absorbance at 490 nm.
Setting [6] is: Table 6, 2 μM, 24 hours, number of living cells, CellTiter-Glo.
The mark [7] stands for this setting: Table 4, 50 nM, 24 hours, LDH, absorbance at 490 nm.
[8] abbreviates: Table 6, 50 nM, 24 hours, number of living cells, CellTiter-Glo.

Molecules are shown by their SMILES.

In the case of `CC(=O)O.Cc1cc2c(C(C)C)c(O)c(O)c(C=O)c2c(O)c1-c1c(C)cc2c(C(C)C)c(O)c(O)c(C=O)c2c1O` (racemic) [Example 1, (±)-Gossypol Acetate], the Absorbance in data set [1] (Table 3, 2 μM, 24 hours, LDH, absorbance at 490 nm) was 1.08; in data set [1] (setting [5]), 0.73. The results for the “Relative value of difference of absorbance” value in data set [2] (2 μM) and in data set [3] (2 μM) were 1.97 and 2.46, respectively. Further, the Luminescence in data set [4] (Table 5, 2 μM, 24 hours, number of living cells, CellTiter-Glo) came to 0.87; in data set [4] (setting [6]), 0.96.

`CC(=O)O.Cc1cc2c(C(C)C)c(O)c(O)c(C=O)c2c(O)c1-c1c(C)cc2c(C(C)C)c(O)c(O)c(C=O)c2c1O` [Example 2, (S)-Gossypol Acetate] gave an Absorbance in data set [1] (setting [5]) of 1.02. Besides, the “Relative value of difference of absorbance” value in data set [2] (2 μM) is 1.57; in data set [3] (2 μM) it was 2.14. The compound further returned a Luminescence in data set [4] (setting [6]) of 1.00.

For the compound `Cc1cc2c(C(C)C)c(O)c(O)cc2c(O)c1-c1c(C)cc2c(C(C)C)c(O)c(O)cc2c1O` [Example 3, (+)-Apogossypol], the Absorbance in data set [1] (human, 24 h, 2 μM) is 1.02. The entries for the “Relative value of difference of absorbance” value in data set [2] (2 μM) and in data set [3] (2 μM) were 1.31 and 1.53, respectively. This compound also came in with a Luminescence in data set [4] (human, 24 h, 2 μM) of 0.82.

`Cc1cc2c(C(C)C)c(O)c(O)c(C=O)c2c(O)c1-c1c(C)cc2c(C(C)C)c(O)c(O)c(C=O)c2c1O` [Example 4, (R)-(−)-Gossypol] yielded an Absorbance in data set [1] (setting [5]) of 1.20. Moreover, the figures for the “Relative value of difference of absorbance” value in data set [2] (2 μM) and in data set [3] (2 μM) were 1.95 and 2.39, respectively. In addition, the Luminescence in data set [4] (human, 24 h, 2 μM) is given as 0.85.

For `COC1=CC(c2cc3ccccc3[nH]2)=N/C1=C\c1[nH]c(C)cc1C.CS(=O)(=O)O` [Example 5, Obatoclax Mesylate], the Absorbance in data set [1] (Table 3, 50 nM, 24 hours, LDH, absorbance at 490 nm) was found to be 1.14. The “Relative value of difference of absorbance” value came to 1.65 in data set [2] (20 nM) and 1.81 in data set [3] (20 nM). In data set [4] (Table 5, 50 nM, 24 hours, number of living cells, CellTiter-Glo), this compound showed a Luminescence of 0.75.

Turning to `CCCCCC1=C/C(=C\c2[nH]c(-c3ccc[nH]3)cc2OC)N=C1C.Cl` [Example 6, Prodigiosin Hydrochloride], the Absorbance in data set [1] (setting [7]) is recorded as 1.02. Besides, the “Relative value of difference of absorbance” value in data set [2] (20 nM) was 1.48; in data set [3] (20 nM) it was 1.31. The compound also had a Luminescence in data set [4] (setting [8]) of 0.76.

`CCCCCCCCCCCc1ccc(/C=C2\N=C(c3ccc[nH]3)C=C2OC)[nH]1.Cl` [Example 7, Undecylprodigiosin Hydrochloride] displayed an Absorbance in data set [1] (setting [7]) of 1.02. Also, the “Relative value of difference of absorbance” value was 1.74 in data set [2] (20 nM) and 2.88 in data set [3] (20 nM). This compound also yielded a Luminescence in data set [4] (setting [8]) of 0.74.

With `Cc1cc2c(C(=O)NC[C@H](C)c3ccccc3)c(O)c(O)cc2c(O)c1-c1c(C)cc2c(C(=O)NC[C@H](C)c3ccccc3)c(O)c(O)cc2c1O` [Example 8, Sabutoclax], in data set [1] (setting [5]), the Absorbance is recorded as 1.18. Besides, the “Relative value of difference of absorbance” value in data set [2] (2 μM) worked out at 1.44; in data set [3] (2 μM) it was 1.39. The compound further came in with a Luminescence in data set [4] (setting [6]) of 0.95.

For the origin of these results see patent publication US20220162561A1, “COMPOSITION FOR PROMOTING SECRETION OF EXTRACELLULAR VESICLES” (priority 2019, published 2022).
